In ChEMBL document CHEMBL3885861, “Open TG-GATES”:

Species on record: Rattus norvegicus
Assay: Open TG-GATES - Regimen: Single
Assay type: toxicity, organism-based, Sprague-Dawley
Parameters: regimen Single, gender Male, age 6 weeks
Conditions: in vivo, po, route gavage; for APTT / Bas / Eos / Fbg / Hb / Ht / Lym / MCH / MCHC / MCV / Mono / Neu / PT / Plat / RBC / Ret / WBC: tissue Blood; for KIDNEY_L / KIDNEY_R / KIDNEY_TOTAL: tissue Kidney; for LIVER: tissue Liver; for A/G / ALP / ALT / AST / BUN / CRE / Ca / Cl / DBIL / GLC / IP / K / LDH / Na / PL / RALB / TBIL / TC / TG / TP / gamma-GTP: tissue Plasma
[1] = 300 mg/kg, 3 h, dose level Middle
[2] = 300 mg/kg, 6 h, dose level Middle
[3] = 300 mg/kg, 9 h, dose level Middle
[4] = 300 mg/kg, 24 h, dose level Middle
[5] = 1000 mg/kg, 3 h, dose level High
[6] = 1000 mg/kg, 6 h, dose level High
[7] = 1000 mg/kg, 9 h, dose level High
[8] = 1000 mg/kg, 24 h, dose level High

## CC[C@@H](CO)NCCN[C@@H](CC)CO [ETHAMBUTOL]
[1]
  TERMINAL_BW: 232.2 g
  APTT: 22.9 s
  Bas: 0%
  Eos: 0.6%
  Fbg: 301.8 mg/dL
  Hb: 13.7 g/dL
  Ht: 40.8%
  Lym: 78%
  MCH: 22 pg
  MCHC: 33.6%
  MCV: 65.5 fL
  Mono: 2.8%
  Neu: 18.2%
  PT: 15.5 s
  Plat: 120.7 x10_4/uL
  RBC: 623.8 x10_4/ul
  Ret: 8.5%
  WBC: 63.4 x10_2/uL
  KIDNEY_L: 1 g
  KIDNEY_R: 1 g
  KIDNEY_TOTAL: 2 g
  LIVER: 10.9 g
  A/G: 1.3
  ALP: 1703.4 IU/L
  ALT: 42.6 IU/L
  AST: 68.2 IU/L
  BUN: 12.2 mg/dL
  CRE: 0.1 mg/dL
  Ca: 10.3 mg/dL
  Cl: 106.8 meq/L
  DBIL: 0.002 mg/dL
  GLC: 190 mg/dL
  IP: 8.9 mg/dL
  K: 3.8 meq/L
  LDH: 187.2 IU/L
  Na: 141 meq/L
  PL: 137.4 mg/dL
  RALB: 3 g/dL
  TBIL: 0.02 mg/dL
  TC: 78.2 mg/dL
  TG: 54.2 mg/dL
  TP: 5.4 g/dL
  gamma-GTP: 1.6 IU/L
[2]
  TERMINAL_BW: 224.6 g
  APTT: 22.5 s
  Bas: 0%
  Eos: 1.2%
  Fbg: 321.2 mg/dL
  Hb: 14 g/dL
  Ht: 41%
  Lym: 75%
  MCH: 21.5 pg
  MCHC: 34.1%
  MCV: 63.1 fL
  Mono: 2.2%
  Neu: 20.6%
  PT: 15.6 s
  Plat: 124.9 x10_4/uL
  RBC: 649.8 x10_4/ul
  Ret: 7.7%
  WBC: 89.1 x10_2/uL
  KIDNEY_L: 1 g
  KIDNEY_R: 1 g
  KIDNEY_TOTAL: 2 g
  LIVER: 9.9 g
  A/G: 1.1
  ALP: 1416.2 IU/L
  ALT: 39.4 IU/L
  AST: 68.6 IU/L
  BUN: 10 mg/dL
  CRE: 0.1 mg/dL
  Ca: 10.2 mg/dL
  Cl: 106 meq/L
  DBIL: 0.002 mg/dL
  GLC: 183.6 mg/dL
  IP: 9.1 mg/dL
  K: 4.1 meq/L
  LDH: 169 IU/L
  Na: 141 meq/L
  PL: 139.8 mg/dL
  RALB: 2.9 g/dL
  TBIL: 0.022 mg/dL
  TC: 74.6 mg/dL
  TG: 76.6 mg/dL
  TP: 5.5 g/dL
  gamma-GTP: 1.8 IU/L
[3]
  TERMINAL_BW: 217.6 g
  APTT: 23 s
  Bas: 0%
  Eos: 0.6%
  Fbg: 334 mg/dL
  Hb: 13.6 g/dL
  Ht: 40.2%
  Lym: 74.4%
  MCH: 21.4 pg
  MCHC: 33.7%
  MCV: 63.5 fL
  Mono: 1.8%
  Neu: 22.2%
  PT: 16.1 s
  Plat: 122 x10_4/uL
  RBC: 633.4 x10_4/ul
  Ret: 7.8%
  WBC: 74.5 x10_2/uL
  KIDNEY_L: 1 g
  KIDNEY_R: 1 g
  KIDNEY_TOTAL: 2.1 g
  LIVER: 9.7 g
  A/G: 1.2
  ALP: 1255.8 IU/L
  ALT: 37 IU/L
  AST: 68.2 IU/L
  BUN: 9.6 mg/dL
  CRE: 0.1 mg/dL
  Ca: 10.4 mg/dL
  Cl: 107 meq/L
  DBIL: 0 mg/dL
  GLC: 176.8 mg/dL
  IP: 9.4 mg/dL
  K: 3.9 meq/L
  LDH: 139.4 IU/L
  Na: 141.6 meq/L
  PL: 136.8 mg/dL
  RALB: 3 g/dL
  TBIL: 0.036 mg/dL
  TC: 78.6 mg/dL
  TG: 53.4 mg/dL
  TP: 5.6 g/dL
  gamma-GTP: 1.8 IU/L
[4]
  TERMINAL_BW: 235.9 g
  APTT: 22 s
  Bas: 0%
  Eos: 1%
  Fbg: 339.2 mg/dL
  Hb: 13.7 g/dL
  Ht: 39.7%
  Lym: 81.6%
  MCH: 22 pg
  MCHC: 34.6%
  MCV: 63.5 fL
  Mono: 3%
  Neu: 13.2%
  PT: 15.9 s
  Plat: 117.6 x10_4/uL
  RBC: 625.8 x10_4/ul
  Ret: 7.3%
  WBC: 107.5 x10_2/uL
  KIDNEY_L: 1.1 g
  KIDNEY_R: 1.1 g
  KIDNEY_TOTAL: 2.2 g
  LIVER: 12.3 g
  A/G: 1.2
  ALP: 1520.4 IU/L
  ALT: 46 IU/L
  AST: 69.4 IU/L
  BUN: 14.6 mg/dL
  CRE: 0.1 mg/dL
  Ca: 10.5 mg/dL
  Cl: 105.2 meq/L
  DBIL: 0 mg/dL
  GLC: 187.4 mg/dL
  IP: 8.5 mg/dL
  K: 3.9 meq/L
  LDH: 145.8 IU/L
  Na: 141 meq/L
  PL: 155.6 mg/dL
  RALB: 3.1 g/dL
  TBIL: 0.014 mg/dL
  TC: 82.4 mg/dL
  TG: 89.4 mg/dL
  TP: 5.7 g/dL
  gamma-GTP: 2 IU/L
[5]
  TERMINAL_BW: 224.6 g
  APTT: 23.9 s
  Bas: 0%
  Eos: 0.8%
  Fbg: 301.6 mg/dL
  Hb: 13.7 g/dL
  Ht: 40.3%
  Lym: 81.2%
  MCH: 21.3 pg
  MCHC: 33.9%
  MCV: 62.7 fL
  Mono: 2.2%
  Neu: 15.4%
  PT: 15.7 s
  Plat: 126.2 x10_4/uL
  RBC: 643.4 x10_4/ul
  Ret: 7.5%
  WBC: 67.7 x10_2/uL
  KIDNEY_L: 1 g
  KIDNEY_R: 1 g
  KIDNEY_TOTAL: 2.1 g
  LIVER: 9.9 g
  A/G: 1.2
  ALP: 1529.4 IU/L
  ALT: 41.8 IU/L
  AST: 74.8 IU/L
  BUN: 10.4 mg/dL
  CRE: 0.1 mg/dL
  Ca: 10.1 mg/dL
  Cl: 106.8 meq/L
  DBIL: 0 mg/dL
  GLC: 173.8 mg/dL
  IP: 8.7 mg/dL
  K: 3.9 meq/L
  LDH: 175.6 IU/L
  Na: 141.6 meq/L
  PL: 139 mg/dL
  RALB: 3 g/dL
  TBIL: 0.018 mg/dL
  TC: 83.8 mg/dL
  TG: 35.6 mg/dL
  TP: 5.4 g/dL
  gamma-GTP: 1.8 IU/L
[6]
  TERMINAL_BW: 222.4 g
  APTT: 22.3 s
  Bas: 0%
  Eos: 1%
  Fbg: 308.6 mg/dL
  Hb: 13.7 g/dL
  Ht: 40.2%
  Lym: 77.4%
  MCH: 21.1 pg
  MCHC: 34.1%
  MCV: 61.9 fL
  Mono: 2.8%
  Neu: 18%
  PT: 15.9 s
  Plat: 123.5 x10_4/uL
  RBC: 650.6 x10_4/ul
  Ret: 7.1%
  WBC: 70.3 x10_2/uL
  KIDNEY_L: 1 g
  KIDNEY_R: 1 g
  KIDNEY_TOTAL: 2 g
  LIVER: 9.5 g
  A/G: 1.2
  ALP: 1436.4 IU/L
  ALT: 35.6 IU/L
  AST: 67.4 IU/L
  BUN: 9.8 mg/dL
  CRE: 0.1 mg/dL
  Ca: 10 mg/dL
  Cl: 108 meq/L
  DBIL: 0.002 mg/dL
  GLC: 186.4 mg/dL
  IP: 9.4 mg/dL
  K: 4.1 meq/L
  LDH: 176.4 IU/L
  Na: 141.4 meq/L
  PL: 134 mg/dL
  RALB: 3 g/dL
  TBIL: 0.03 mg/dL
  TC: 75.4 mg/dL
  TG: 43.2 mg/dL
  TP: 5.5 g/dL
  gamma-GTP: 1.4 IU/L
[7]
  TERMINAL_BW: 217 g
  APTT: 22.3 s
  Bas: 0%
  Eos: 0.2%
  Fbg: 312 mg/dL
  Hb: 13.9 g/dL
  Ht: 40.3%
  Lym: 79.2%
  MCH: 22 pg
  MCHC: 34.4%
  MCV: 64.1 fL
  Mono: 1.4%
  Neu: 17.8%
  PT: 16.3 s
  Plat: 116.9 x10_4/uL
  RBC: 630 x10_4/ul
  Ret: 7.6%
  WBC: 68.6 x10_2/uL
  KIDNEY_L: 1 g
  KIDNEY_R: 1 g
  KIDNEY_TOTAL: 1.9 g
  LIVER: 8.7 g
  A/G: 1.1
  ALP: 1464.4 IU/L
  ALT: 35.8 IU/L
  AST: 68.2 IU/L
  BUN: 11.4 mg/dL
  CRE: 0.1 mg/dL
  Ca: 9.9 mg/dL
  Cl: 108.2 meq/L
  DBIL: 0.002 mg/dL
  GLC: 177.8 mg/dL
  IP: 8.8 mg/dL
  K: 3.9 meq/L
  LDH: 143 IU/L
  Na: 140 meq/L
  PL: 121 mg/dL
  RALB: 3 g/dL
  TBIL: 0.022 mg/dL
  TC: 63.8 mg/dL
  TG: 44.6 mg/dL
  TP: 5.6 g/dL
  gamma-GTP: 1.6 IU/L
[8]
  TERMINAL_BW: 227.8 g
  APTT: 22.5 s
  Bas: 0%
  Eos: 1%
  Fbg: 306.4 mg/dL
  Hb: 13.4 g/dL
  Ht: 39.2%
  Lym: 76%
  MCH: 21.5 pg
  MCHC: 34.3%
  MCV: 62.9 fL
  Mono: 3%
  Neu: 18.6%
  PT: 16.7 s
  Plat: 118 x10_4/uL
  RBC: 623.4 x10_4/ul
  Ret: 6.9%
  WBC: 94.9 x10_2/uL
  KIDNEY_L: 1 g
  KIDNEY_R: 1.1 g
  KIDNEY_TOTAL: 2.1 g
  LIVER: 10.5 g
  A/G: 1.2
  ALP: 1508.4 IU/L
  ALT: 46.8 IU/L
  AST: 74 IU/L
  BUN: 13.4 mg/dL
  CRE: 0.1 mg/dL
  Ca: 10.5 mg/dL
  Cl: 105 meq/L
  DBIL: 0.002 mg/dL
  GLC: 183.8 mg/dL
  IP: 8.3 mg/dL
  K: 3.9 meq/L
  LDH: 158 IU/L
  Na: 139.4 meq/L
  PL: 135.4 mg/dL
  RALB: 3 g/dL
  TBIL: 0.022 mg/dL
  TC: 74.6 mg/dL
  TG: 53.2 mg/dL
  TP: 5.5 g/dL
  gamma-GTP: 2 IU/L
